In PubChem BioAssay (NCI):
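Results reflect a 48-hour exposure of cells in 96-well plates to compound at five concentrations. Here, GI50 denotes the concentration required for 50% inhibition of growth. TGI: total growth inhibition.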

Key:
Test in all cases: NCI anticancer screen, dose series, 48 h
[1] = system: OVCAR-4 ovarian
[2] = system: HCT-15 colon
[3] = system: HL-60(TB) leukemia
[4] = system: SF-539 CNS
[5] = system: SN12C renal
[6] = system: SR leukemia
[7] = system: CAKI-1 renal
[8] = system: OVCAR-3 ovarian
[9] = system: SF-268 CNS
[10] = system: ACHN renal
[11] = system: U251 CNS
[12] = system: SNB-75 CNS
[13] = system: EKVX NSCLC
[14] = system: IGROV1 ovarian
[15] = system: HOP-62 NSCLC
[16] = system: HS 578T breast
[17] = system: UACC-62 melanoma
[18] = system: MDA-MB-435
[19] = system: RXF 393 renal
[20] = system: MALME-3M melanoma
[21] = system: NCI/ADR-RES ovarian
[22] = system: OVCAR-8 ovarian
[23] = system: NCI-H23 lung
[24] = system: SK-MEL-28 melanoma
[25] = system: OVCAR-5 ovarian
[26] = system: T-47D breast
[27] = system: MDA-MB-231 breast
[28] = system: HOP-92 NSCLC
[29] = system: SW-620 colon
[30] = system: MCF7 breast
[31] = system: MOLT-4 leukemia
[32] = system: NCI-H460 lung
[33] = system: COLO 205 colon
[34] = system: PC-3 prostate
[35] = system: SNB-19 CNS
[36] = system: NCI-H226 lung
[37] = system: UACC-257 melanoma
[38] = system: HCC-2998 colon
[39] = system: SF-295 CNS
[40] = system: SK-OV-3 ovarian
[41] = system: A549 NSCLC
[42] = system: A498 renal
[43] = system: KM12 colon
[44] = system: UO-31 renal
[45] = system: LOX IMVI melanoma
[46] = system: CCRF-CEM leukemia
[47] = system: DU-145 prostate
[48] = system: K-562 leukemia
[49] = system: RPMI-8226 leukemia
[50] = system: SK-MEL-5 melanoma
[51] = system: NCI-H522 lung
[52] = system: BT-549 breast
[53] = system: 786-0 renal
[54] = system: HT29 colon
[55] = system: M14 melanoma
[56] = system: SK-MEL-2 melanoma
[57] = system: TK-10 renal
[58] = system: HCT-116 colon

## O=C(Cc1csc2nc(-c3ccc(Cl)cc3)cn12)N/N=C/c1ccccc1O
[1]
  GI50: 1500 nM
  TGI: > 100000 nM
[2]
  GI50: 468 nM
  TGI: > 100000 nM
[3]
  GI50: 1660 nM
  TGI: 8510 nM
[4]
  GI50: 7930 nM
  TGI: > 100000 nM
[5]
  GI50: 11000 nM
  TGI: > 100000 nM
[6]
  GI50: 603 nM
  TGI: > 100000 nM
[7]
  GI50: 782 nM
  TGI: 16000 nM
[8]
  GI50: 360 nM
  TGI: 83800 nM
[9]
  GI50: 1260 nM
  TGI: 54800 nM
[10]
  GI50: 1770 nM
  TGI: > 100000 nM
[11]
  GI50: 1770 nM
  TGI: 35400 nM
[12]
  GI50: 4320 nM
  TGI: > 100000 nM
[13]
  GI50: 3260 nM
  TGI: > 100000 nM
[14]
  GI50: 3050 nM
  TGI: > 100000 nM
[15]
  GI50: 4670 nM
  TGI: > 100000 nM
[16]
  GI50: 10000 nM
  TGI: > 100000 nM
[17]
  GI50: 3420 nM
  TGI: 38900 nM
[18]
  GI50: 6100 nM
  TGI: > 100000 nM
[19]
  GI50: 2690 nM
  TGI: 39800 nM
[20]
  GI50: 5560 nM
  TGI: 94200 nM
[21]
  GI50: 2600 nM
  TGI: 81800 nM
[22]
  GI50: 3010 nM
  TGI: 78900 nM
[23]
  GI50: 5320 nM
  TGI: > 100000 nM
[24]
  GI50: 5500 nM
  TGI: > 100000 nM
[25]
  GI50: 38800 nM
  TGI: > 100000 nM
[26]
  GI50: 4160 nM
  TGI: > 100000 nM
[27]
  GI50: 13100 nM
  TGI: > 100000 nM
[28]
  GI50: 3390 nM
  TGI: 32400 nM
[29]
  GI50: 6810 nM
  TGI: > 100000 nM
[30]
  GI50: 3340 nM
  TGI: > 100000 nM
[31]
  GI50: 2170 nM
  TGI: > 100000 nM
[32]
  GI50: 1390 nM
  TGI: > 100000 nM
[33]
  GI50: 2930 nM
  TGI: > 100000 nM
[34]
  GI50: 3460 nM
  TGI: > 100000 nM
[35]
  GI50: 12300 nM
  TGI: > 100000 nM
[36]
  GI50: 4650 nM
  TGI: > 100000 nM
[37]
  GI50: 4740 nM
  TGI: > 100000 nM
[38]
  GI50: 2400 nM
  TGI: > 100000 nM
[39]
  GI50: 5210 nM
  TGI: > 100000 nM
[40]
  GI50: 5050 nM
  TGI: > 100000 nM
[41]
  GI50: 5180 nM
  TGI: > 100000 nM
[42]
  GI50: 8320 nM
  TGI: > 100000 nM
[43]
  GI50: 2810 nM
  TGI: > 100000 nM
[44]
  GI50: 504 nM
  TGI: 43900 nM
[45]
  GI50: 1930 nM
  TGI: 36100 nM
[46]
  GI50: 736 nM
  TGI: > 100000 nM
[47]
  GI50: 2720 nM
  TGI: > 100000 nM
[48]
  GI50: 3420 nM
  TGI: > 100000 nM
[49]
  GI50: 3360 nM
  TGI: > 100000 nM
[50]
  GI50: 2930 nM
  TGI: > 100000 nM

## C=C1C(=O)O[C@H]2[C@H]1CC/C(Cn1cc(-c3cccc(Cl)c3)nn1)=C\CC[C@@]1(C)O[C@@H]21
[1]
  GI50: 1090 nM
  TGI: 2440 nM
[2]
  GI50: 192 nM
  TGI: 479 nM
[3]
  GI50: 332 nM
  TGI: 1310 nM
[4]
  GI50: 258 nM
  TGI: 791 nM
[5]
  GI50: 1400 nM
  TGI: 3350 nM
[6]
  GI50: 231 nM
  TGI: 886 nM
[7]
  GI50: 869 nM
  TGI: 2130 nM
[8]
  GI50: 475 nM
  TGI: 1630 nM
[9]
  GI50: 1590 nM
  TGI: 3460 nM
[10]
  GI50: 184 nM
  TGI: 355 nM
[11]
  GI50: 1610 nM
  TGI: 3010 nM
[12]
  GI50: 1160 nM
  TGI: 2390 nM
[13]
  GI50: 1570 nM
  TGI: 2920 nM
[14]
  GI50: 730 nM
  TGI: 2410 nM
[15]
  GI50: 1940 nM
  TGI: 3680 nM
[16]
  GI50: 2260 nM
  TGI: 5560 nM
[17]
  GI50: 625 nM
  TGI: 2080 nM
[18]
  GI50: 591 nM
  TGI: 1980 nM
[19]
  GI50: 558 nM
  TGI: 1850 nM
[51]
  GI50: 291 nM
  TGI: 1090 nM
[20]
  GI50: 1200 nM
  TGI: 2920 nM
[21]
  GI50: 2390 nM
  TGI: 8390 nM
[22]
  GI50: 1310 nM
  TGI: 2850 nM
[23]
  GI50: 1580 nM
  TGI: 3270 nM
[24]
  GI50: 351 nM
  TGI: 1270 nM
[25]
  GI50: 1210 nM
  TGI: 2780 nM
[52]
  GI50: 778 nM
  TGI: 2100 nM
[27]
  GI50: 1090 nM
  TGI: 2910 nM
[28]
  GI50: 257 nM
  TGI: 842 nM
[29]
  GI50: 330 nM
  TGI: 1200 nM
[53]
  GI50: 506 nM
  TGI: 1870 nM
[31]
  GI50: 310 nM
  TGI: 1250 nM
[32]
  GI50: 2130 nM
  TGI: 4520 nM
[33]
  GI50: 417 nM
  TGI: 1690 nM
[54]
  GI50: 510 nM
  TGI: 1730 nM
[34]
  GI50: 1980 nM
  TGI: 3770 nM
[35]
  GI50: 2400 nM
  TGI: 6450 nM
[36]
  GI50: 1710 nM
  TGI: 3750 nM
[37]
  GI50: 1420 nM
  TGI: 2800 nM
[38]
  GI50: 1640 nM
  TGI: 3290 nM
[55]
  GI50: 798 nM
  TGI: 2200 nM
[39]
  GI50: 3410 nM
  TGI: 13000 nM
[40]
  GI50: 3670 nM
  TGI: 11200 nM
[41]
  GI50: 1790 nM
  TGI: 3570 nM
[56]
  GI50: 1660 nM
  TGI: 3280 nM
[42]
  GI50: 1520 nM
  TGI: 2970 nM
[43]
  GI50: 1780 nM
  TGI: 3740 nM
[57]
  GI50: 992 nM
  TGI: 2150 nM
[44]
  GI50: 1080 nM
  TGI: 2310 nM
[45]
  GI50: 285 nM
  TGI: 898 nM
[46]
  GI50: 200 nM
  TGI: 685 nM
[47]
  GI50: 1000 nM
  TGI: 2160 nM
[48]
  GI50: 405 nM
  TGI: 2440 nM
[49]
  GI50: 506 nM
  TGI: 3360 nM
[50]
  GI50: 1700 nM
  TGI: 3080 nM
[58]
  GI50: 163 nM
  TGI: 377 nM
